Results as given in patent US20260027179A1, “ANTI-SYNUCLEINOPATHY PEPTIDE AND METHODS TO TREAT NEURODEGENERATIVE DISEASES” (University of British Columbia, priority 2021, published 2026).
Peptide text beside a SMILES is read from it. * marks the point of attachment. Cbz = O=C(OCc1ccccc1)*

How the values were obtained:
[1] = biological target: T1, purified recombinant human α-synuclein (Homo sapiens, UniProt P37840); assay: Biacore peptide-protein binding assay; conditions: 0.20-12.50 μM peptide, report point 20 seconds into dissociation
T1 construct: His (histidine tag) (N); purchased Sigma S7820-500UG
Experimental: Biacore experiments were performed using a Biacore 3000 instrument (GE Healthcare Biosciences, Upsala, Sweden) and HBS running buffer, pH 7.4, containing 10 mM HEPES, 150 mM NaCl, 3 mM EDTA, and 0.005% surfactant P20. A research-grade CM5 sensor chip was activated with a mixture containing equal molar amounts of EDC (N-ethyl-N′-(dimethylaminopropyl) carbodiide and NHS (N-hydroxysuccinimide). Purified recombinant human α-synuclein (N-terminal histidine tagged, Sigma, S7820-500UG), diluted in sodium acetate pH 3.1, was then injected and covalently coupled to a flow cell of the sensor chip surface by amide bonding. Residual unreacted sites were blocked with ethanolamine. A reference surface, to account for non-specific binding, was similarly generated by activating and blocking an adjacent flow cell. Approximately 1500 resonance units (RU), equivalent to a surface concentration of 1500 pg/mm^2 of α-synuclein, was immobilized.
To ascertain the binding interaction between α-synuclein knockdown peptides and α-synuclein, synthetic Tat-βsyn-degron peptide or control tat peptide was serially diluted and sequentially injected over the active surface containing immobilized α-synuclein and the reference surface for 3 minutes at a flow rate of 30 μl/minute. The peptides were then allowed to dissociate for 3 minutes during which time HBS running buffer was injected. The resultant sensorgrams were double-referenced by subtracting out the binding on the reference surface and the response from the HBS blank buffer control. Binding response report points were collected 20 seconds into the dissociation phase of the interaction at time 200 seconds, which represents a stable binding response and excludes bulk refractive index changes and nonspecific binding.

endogenous α-synuclein = biological target: T2, endogenous α-synuclein (Rattus norvegicus, UniProt P37377); assay: Knockdown of endogenous α-synuclein in primary cortical neuron cultures, immunoblot; assay type: cell-based
T2 construct: endogenous in cells; host or cells: primary rat cortical neurons (14 DIV) and primary rat ventral midbrain neurons (3 DIV)
Experimental: Primary rat neuron cultures were prepared from embryos of pregnant Sprague-Dawley rats (E18). The experimental protocol was approved by the University of British Columbia Animal Care Committee. Briefly, the cortical tissue or ventral midbrain tissue was isolated into ice cold HBSS (Invitrogen, 14170-112) and then digested with 0.25% trypsin-EDTA at 37° C. for 30 min. After washing with warm DMEM (supplemented with 10% FBS) three times, neurons were suspended in neuron culture media and dissociated by trituration using varying sizes of pipettes. Neurons were then centrifuged, and the pellet was re-suspended in culture media, washed twice with culture media, and plated on the poly-D-lysine-coated plates. Neuron culture was maintained in the 37° C. incubator with […] and 5% CO2. The morning after culturing, 2/3 of the neuron culture media was replaced with fresh neuron culture media. Media was then replaced every 3-4 days. Primary rat cortical neuron culture was used 14 days in vitro (DIV) and primary rat ventral midbrain neuron culture was used 3 DIV.
Tat-βsyn-degron and Tat-βsyn peptides were first dissolved in sterile water as a 25 mM stock solution and then diluted directly in the neurobasal culture media to make the desired working concentration. 20 mM MPP+iodide stock solution was made freshly each time and diluted in the neurobasal culture media directly to make the desired working concentration. For 48 hrs treatment, neuron culture media containing MPP+ and peptides were replaced every 24 hrs.
(§1) Brain tissues or cultured cells were lysed on ice in the lysis buffer and then the solution was centrifuged at 14,000 rpm for 10 min at 4° C. Next, the supernatant was collected and protein concentrations were determined using a BCA protein assay kit (Thermo Scientific, 23227). Equal amount of protein samples was mixed with 4× sample buffer, boiled at 100° C. for 5 min, and separated on 10% sodium dodecyl sulphate-polyacrylamide gel electrophoresis (SDS-PAGE). Proteins were then transferred to Immobilon-PTM polyvinylidene fluoride (PVDF) membranes (Bio-Rad, 162-0177). The membranes were blocked with 5% non-fat milk in Tris-buffered saline containing 0.1% Tween-20 (TBST) for 1 hr at room temperature, and then incubated overnight at 4° C. with primary antibody. After washing 3×5 min in TBST, membranes were incubated with horseradish peroxidase-conjugated secondary antibody for 1 hr at room temperature. After another three washes with TBST, protein was visualized in the Bio-Rad Imager using ECL western blotting substrate (Pierce, 32016). The band density of each protein was quantified by the Bio-Rad Quantity One software and the relative optical density was analyzed relative to the loading control β-actin on the same membrane.

C57BL/6 mice = assay: MPTP mouse model, rotarod test; assay type: in vivo; conditions: peptide 6 μmol/kg i.p. twice a day for 12 days, vs MPTP group
Experimental: (§2) C57BL/6 mice (20-25 g) received intraperitoneal (i.p.) injection of 30 mg/kg parkinsonian toxin MPTP hydrochloride once a day for 5 days to induce dopaminergic neuron death in the substantia nigra, while the control mice received equal volumes of saline injection. 6 μmol/kg Tat-βsyn-degron peptide or control Tat-βsyn peptide was i.p. injected into the MPTP-treated mice every 12 hrs from the first day of MPTP injection until 7 days after the last injection of MPTP. All groups of mice then underwent a rotarod test before they were sacrificed.
The rotarod test was performed as previously described (Heldermon, C. D. et al., PloS one 2, e772, doi:10.1371/journal.pone.0000772 (2007)), with modifications. Briefly, 6 days after the last MPTP injection, all mice received 4 rounds of training on the rotarod (Stoelting Co.). In the first two rounds of training, the rotarod was maintained at constant speed of 20 rpm for 3 min. In the second two rounds of training, the rotarod reversed rotation direction every 3 turns at the constant speed of 20 rpm for 3 min. […] Mice were tested 10 times at 20 min intervals, and the time that they remained on the rotarod during each test was recorded. […] The motor performance of the mouse was expressed as the latency to fall off the rotarod.

dopaminergic neurons = assay: MPTP mouse model, dopaminergic neuronal damage (TH immunoblotting, TH immunohistochemistry); assay type: in vivo; conditions: peptide 6 μmol/kg i.p. twice a day for 12 days
Experimental: C57BL/6 mice were i.p. injected with 30 mg/kg parkinsonian toxin MPTP (or saline as control), once per day for 5 consecutive days, to induce dopaminergic neuron damage. The effects of MPTP administration on mouse rotarod performance and damage to dopaminergic neurons were then analyzed 1 week after the last injection of MPTP. To determine the effect of α-synuclein knockdown in protecting dopaminergic neurons against MPTP, the Tat-βsyn-degron peptide or its control Tat-βsyn (6 μmol/kg; i.p.) was used in some animals twice a day for 12 days, beginning the first day of MPTP injection. […] The striatum is a region that receives dopaminergic neuronal projections from the substantia nigra and is also deeply affected in PD. Consistent with the specific neurotoxic effects of MPTP on dopaminergic neurons, in mice receiving MPTP injection alone there was a significant loss of protein TH in both dopaminergic neurons in the substantia nigra-containing ventral midbrain (FIGS. 6a and 6c) and dopaminergic neuronal terminals in the striatum (FIGS. 6d and 6f). […] As expected, the specific knockdown of α-synuclein by Tat-βsyn-degron protected against MPTP-induced dopaminergic neuronal injury (FIGS. 6c and 6f).
as §2, §1
C57BL/6 mice were anesthetized with 1.5 g/kg urethane (Sigma, U2500) and then perfused with 0.9% saline and 4% paraformaldehyde. Brains were removed and fixed in 4% paraformaldehyde for 24 hrs before being transferred to 30% sucrose/PBS solution for cryoprotection. The brains were then sectioned into 30 μm slices using a Leica cryostat. After blocking and permeabilization using a PBS solution containing 1% BSA and 0.2% Triton X-100 for 30 min at room temperature, the brain slices were incubated with anti-TH antibody (1:800 dilution) for 3 days at 4° C. Finally, the TH-positive neurons in the substantia nigra and TH-positive neuronal terminals in the striatum were stained using the anti-mouse Ig HRP detection kit (BD Transduction Laboratories, 551011) according to manufacturer's instruction, and visualized under Zeiss Axio Observer D1 microscope. […]

YGRKKRRQRRR [Tat peptide, reference compound]
binding response to immobilized α-synuclein [1]: little binding

CC(C)C[C@@H](C=O)NC(=O)[C@H](CC(C)C)NC(=O)[C@H](CC(C)C)NC(=O)OCc1ccccc1 [MG132, reference compound] (Cbz-Leu-Leu-Leu-aldehyde)
effect on Tat-βsyn-degron induced knockdown of α-synuclein (endogenous α-synuclein; 10 μM MG132 + 50 μM Tat-βsyn-degron, 24 hrs): prevented Tat-βsyn-degron induced knockdown of α-synuclein

YGRKKRRQRRRRTKSGVYLVG [Tat-βsyn, control peptide lacking the proteasomal targeting signal, reference compound]
MPTP-induced motor deficits (latency to fall off the rotarod) (C57BL/6 mice): significantly reduced | MPTP-induced dopaminergic neuronal damage (overall, FIG. 6 and FIG. 7a-d) (dopaminergic neurons): small, non-significant decrease | endogenous α-synuclein protein levels (endogenous α-synuclein; bath application 24 hrs, 5-50 μM (control 50 μM), cortical neuron cultures): had no effect

YGRKKRRQRRRGVLYVGSKTRRRRG [Tat-βsynN-degron]
binding response to immobilized α-synuclein [1]: robust and similar binding
